Holding throughout (type): biochemical, Alternaria brassicicola
The subject of test [1] is T1, AbGSTFuA1.
T1 construct: E. coli BL21(DE3) pRARE
The test can be described thus: GSH transferase, absorbance […] nm. Particulars: 3 mM GSH (table note; methods say 5 mM), pH 6.5.

Test [2] concerns T2, AbGTT1.2.
T2 construct: E. coli BL21(DE3) pRARE
Briefly: GSH transferase, absorbance […] nm. Particulars: 3 mM GSH (table note; methods say 5 mM), phosphate pH 7.5.

Test [3] concerns T1, AbGSTFuA1. The test can be described thus: GSH transferase, absorbance […] nm. The note with it: 3 mM GSH (table note; methods say 5 mM), phosphate pH 7.5.
Test [4] has as its system T3, AbUre2pB1.
T3 construct: E. coli BL21(DE3) pRARE
Briefly: GSH transferase, absorbance […] nm. Particulars: 3 mM GSH (table note; methods say 5 mM), phosphate pH 7.5.

The test system of test [5] is T2, AbGTT1.2. The test can be described thus: peroxidase, glutathione reductase/NADPH coupled, […] nm. Particulars: 3 mM GSH (table note; methods say 2 mM), Tris-HCl pH 8.0.
Test [6] concerns T3, AbUre2pB1. Described as above. Particulars: 3 mM GSH (table note; methods say 2 mM), Tris-HCl pH 8.0.

As for `C=CCN=C=S` [Al-ITC], the Km (as a rule, the concentration of substrate that gives half-maximal velocity) in the test with AbGSTFuA1 [1] was 120 ± 20 µM.
For the compound `S=C=NCc1ccccc1` [Bz-ITC], the Km with AbGSTFuA1 [1] came to 180 ± 30 µM.
In the case of `O=[N+]([O-])c1ccc(Cl)c([N+](=O)[O-])c1` [CDNB, 1-chloro-2,4-dinitrobenzene], the Michaelis constant (Km) in the test on AbGTT1.2 [2] is 1820 ± 330 µM; in the test on AbGSTFuA1 [3], 400 ± 20 µM; in the test with AbUre2pB1 [4] it was 5010 ± 400 µM.
`CC(C)(OO)c1ccccc1` [Cu-OOH]: the Km in the test with AbGTT1.2 [5] was determined as 120 ± 40 µM; in the test with AbUre2pB1 [6] it was 770 ± 60 µM.
Take `S=C=NCCc1ccccc1` [Ph-ITC]: in the test on AbGSTFuA1 [1], the Km came out at 110 ± 20 µM.

These data come from publication PMC4470081, “Characterization of glutathione transferases involved in the pathogenicity of Alternaria brassicicola” (BMC Microbiology, 2015).
